Literature values in patent publication US20230380420A1, “HARD SURFACE DISINFECTING COMPOSITION” (priority 2020, published 2023).

Settings: alcohols; room temperature

Compound	~δp [MPa^1/2]
CCCCO [1-butanol]	~5.7
CCCCCCCCCCO [1-decanol]	~10.0
CCCCCO [1-pentanol]	~4.5
CCCO [1-propanol]	~6.8
OCC(Cl)CCl (stereo not drawn) [2,3-dichloropropanol]	~9.2
OC1C=CCC1 (stereo not drawn) [2-cyclopentenyl alcohol]	~7.6
CCCCCCCCC(C)O (stereo not drawn) [2-decanol]	~10.0
CCC(CC)CO [2-ethyl-1-butanol]	~4.3
CCCCC(CC)CO (stereo not drawn) [2-ethyl-hexanol]	~3.3
CCCC(C)O (stereo not drawn) [2-pentanol]	~6.4
CC(C)O [2-propanol]	~6.1
C=CCO [2-propenol]	~10.8
OCc1ccc(Cl)cc1 [4-chlorobenzyl alcohol]	~7.5
OC1CCCCC1 [cyclohexanol]	~4.1
CCO [ethanol]	~8.8
CC(C)CCCCCO [isooctyl alcohol]	~7.3
CO [methanol]	~12.3
CCCCCCCCO [octanol]	~3.3
CCCCCCCC/C=C\CCCCCCCCO [oleyl alcohol]	~2.6
CC(C)(C)O [t-butyl alcohol]	~5.1

Same assay, conditions: glycol ethers; room temperature

Compound	~δp [MPa^1/2]
CCCCOCCOCCO [diethylene glycol mono-n-butyl ether]	~7.0
CCOCCOCCO [diethylene glycol monoethyl ether]	~9.2
COCCOCCO [diethylene glycol monomethyl ether]	~7.8
OCCOCc1ccccc1 [ethylene glycol monobenzyl ether]	~5.9
CCCCOCCO [ethylene glycol monobutyl ether]	~5.1
CCOCCO [ethylene glycol monoethyl ether]	~9.2
CC(C)OCCO [ethylene glycol monoisopropyl ether]	~8.2
COCCO [ethylene glycol monomethyl ether]	~9.2
OCCOc1ccccc1 [ethylene glycol monophenyl ether]	~5.7
CCCOCCO [ethylene glycol monopropyl ether]	~8.2
CCCCOCC(C)O (stereo not drawn) [propylene glycol monobutyl ether]	~4.5
CCOCC(C)O (stereo not drawn) [propylene glycol monoethyl ether]	~6.5
CC(C)COCC(C)O (stereo not drawn) [propylene glycol monoisobutyl ether]	~4.7
CC(O)COC(C)C (stereo not drawn) [propylene glycol monoisopropyl ether]	~6.1
COCC(C)O (stereo not drawn) [propylene glycol monomethyl ether]	~6.3
CCCOCC(C)O (stereo not drawn) [propylene glycol monopropyl ether]	~5.6
COCCOCCOCCO [triethylene glycol monomethyl ether]	~7.6
CCCCCCCC/C=C\CCCCCCCCOCCOCCOCCO [triethylene glycol monooleyl ether]	~3.1

Same assay, conditions: room temperature

Compound	δp
O [water]	≈ 16.0 MPa^1/2
